{"source": "patent US20130109734A1", "about": "(Metabolex, Inc., priority 2010, published 2013)", "key": {"human GPR120": {"target": "T1, human GPR120 (Homo sapiens, UniProt Q5NUL3)", "T1 construct": "host or cells: HEK293 cells co-expressing Gqi5", "T1 sequence (Q5NUL3 1-361)": "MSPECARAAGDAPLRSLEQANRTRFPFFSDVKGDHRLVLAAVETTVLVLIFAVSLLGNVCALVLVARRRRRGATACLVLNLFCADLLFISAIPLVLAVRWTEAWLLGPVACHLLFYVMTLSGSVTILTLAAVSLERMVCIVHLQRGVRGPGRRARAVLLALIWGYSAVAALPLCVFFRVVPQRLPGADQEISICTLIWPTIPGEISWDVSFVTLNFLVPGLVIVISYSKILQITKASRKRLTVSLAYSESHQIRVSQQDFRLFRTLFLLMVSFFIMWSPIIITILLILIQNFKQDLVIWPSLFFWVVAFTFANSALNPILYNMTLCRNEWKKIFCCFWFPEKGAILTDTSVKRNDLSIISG", "test": "Intracellular Ca2+ assay in human GPR120 stable cell line (HEK293 co-expressing Gqi5), Flexstation", "type": "cell-based", "details": "for % Activity (GW9508 Reference Compound): % activity at 5 μM compared to the maximal activity of GW9508 at 6.7 μM (=100%), human GPR120 cells, Ca2+ fluorescence", "summary_of_the_method": "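HEK293 cells stably co-expressing Gqi5 and Flag-tagged human GPR120, loaded with Calcium 4 dye in HBSS/HEPES pH 7.4 at 37 °C; compounds at eight concentrations, 0.00001–20 μM, fluorescence (485/525 nm) read 90 s. EC50 from Max−Min change; percent activity relative to GW9508 maximum at 6.7 μM.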"}, "C57BL/6J mice": {"tested_on": "C57BL/6J mice", "test": "Intra peritoneal glucose tolerance test (IPGTT)", "type": "in vivo", "details": "Mus musculus, 2 h; C57BL/6J mice fasted overnight, compound 30 mg/kg oral gavage at -30 min, 2 g/kg glucose intra peritoneally, incremental AUC 0-120 min vs vehicle; read-out: % reduction IPGTT at 30 mg/kg", "method": "8-10 week old male C57BL/6J mice (Harlan) were maintained on regular chow diet from Harlan (2018 Teklad Global). On the day before the experiment mice were fasted overnight, then randomized into groups (n=10-15) to receive the tested GPR120 agonist at doses ranging from 100 mg/kg or the vehicle (1% CMC, 2% TWEEN 80). Compounds were delivered orally via gavage at 10 mL/kg. Blood glucose levels were measured by glucometer (Ascensia Elite XL, Bayer) at time −30 minutes before administration of compound. Blood glucose was measured again after 30 minutes (at time 0), and then the mice were dosed intra peritoneally with 2 g/kg glucose at 10 mL/kg. Blood glucose measurements were taken 20, 40, 60, 90 and 120 minutes after glucose administration, by glucometer (Ascensia Elite XL, Bayer).\nGlucose levels were plotted against time, and the incremental area under the curve (AUC) of the glucose excursion was determined from time 0 using Graphpad Prism 5.01. Outliers were excluded using Tukey's box plot outlier test, and statistical significance of differences in AUC of compound treatment compared to vehicle was determined by non-parametric Kruskal-Wallis test with Dunn's post test.\nThe compounds were tested at 30 mg/kg and the levels of blood glucose were determined in the presence and absence of the tested compounds. The percentage of glucose reduction is reported. […]"}}, "data": [{"molecule": "CC(Cc1ccc(OCc2cc(Cl)cc3c2OC(C)(C)C3)cc1)C(=O)O", "note": "(stereo not drawn) [Example 13]", "values": [{"measurement": "% Activity (GW9508 Reference Compound)", "setting": "human GPR120", "result": 119.0442, "unit": "%"}, {"measurement": "inhibition in vivo at 30 mg/kg", "setting": "C57BL/6J mice", "result": 31, "unit": "%"}]}, {"molecule": "CC(Cc1ccc(OCc2cc(Cl)cc3c2OC(C)(C)C3)c(F)c1)C(=O)O", "note": "(stereo not drawn) [Example 10, 3-(4-((5-chloro-2,2-dimethyl-2,3-dihydrobenzofuran-7-yl)methoxy)-3-fluorophenyl)-2-methylpropanoic acid]", "values": [{"measurement": "% Activity (GW9508 Reference Compound)", "setting": "human GPR120", "result": 106.7955, "unit": "%"}, {"measurement": "inhibition in vivo at 30 mg/kg", "setting": "C57BL/6J mice", "result": 30.7, "unit": "%"}]}, {"molecule": "CC1(C)Cc2cc(F)cc(COc3ccc(CCC(=O)O)c4c3CCCC4)c2O1", "note": "[Example 218, 3-(4-((5-fluoro-2,2-dimethyl-2,3-dihydrobenzofuran-7-yl)methoxy)-5,6,7,8-tetrahydronaphthalen-1-yl)propanoic acid]", "values": [{"measurement": "% Activity (GW9508 Reference Compound)", "setting": "human GPR120", "result": 114.48, "unit": "%"}]}, {"molecule": "Cc1c(CCC(=O)O)ccc(OCc2cc(F)cc3c2OC(C)(C)C3)c1C", "note": "[Example 208, 3-(4-((5-fluoro-2,2-dimethyl-2,3-dihydrobenzofuran-7-yl)methoxy)-2,3-dimethylphenyl)propanoic acid]", "values": [{"measurement": "% Activity (GW9508 Reference Compound)", "setting": "human GPR120", "result": 147.47, "unit": "%"}]}, {"molecule": "[2H]C([2H])(C(=O)O)C([2H])([2H])c1ccc(OCc2cc(F)cc3c2OC(C)(C)C3)c(F)c1CC", "note": "[Example 243, 3-(2-ethyl-3-fluoro-4-((5-fluoro-2,2-dimethyl-2,3-dihydrobenzofuran-7-yl)methoxy)phenyl)-2,2,3,3-tetradeuteriopropanoic acid]", "values": [{"measurement": "% Activity (GW9508 Reference Compound)", "setting": "human GPR120", "result": 155.23, "unit": "%"}]}, {"molecule": "CC(Cc1ccc(OCc2cc(Cl)cc3c2OCC3(C)C)cc1)C(=O)O", "note": "(stereo not drawn) [Example 148, 3-(4-((5-chloro-3,3-dimethyl-2,3-dihydrobenzofuran-7-yl)methoxy)phenyl)-2-methylpropanoic acid]", "values": [{"measurement": "% Activity (GW9508 Reference Compound)", "setting": "human GPR120", "result": 113.89, "unit": "%"}]}, {"molecule": "CC1(C)Cc2cc(Cl)cc(COc3c(F)cc(C4CC4CC(=O)O)cc3F)c2O1", "note": "(stereo not drawn) [Example 41, 2-(2-(4-((5-chloro-2,2-dimethyl-2,3-dihydrobenzofuran-7-yl)methoxy)-3,5-difluorophenyl)cyclopropyl)acetic acid]", "values": [{"measurement": "% Activity (GW9508 Reference Compound)", "setting": "human GPR120", "result": 116.46, "unit": "%"}, {"measurement": "EC50", "setting": "human GPR120; human GPR120 stably expressing cells, Ca2+ fluorescence (Max-Min), eight concentrations 0.00001 to 20 μM", "result": "> 10", "unit": "µM"}]}, {"molecule": "Cc1cc2cccc(COc3c(F)cc(CC(C)C(=O)O)cc3F)c2s1", "note": "(stereo not drawn) [Example 151, 3-(3,5-difluoro-4-((2-methylbenzo[b]thiophen-7-yl)methoxy)phenyl)-2-methylpropanoic acid]", "values": [{"measurement": "% Activity (GW9508 Reference Compound)", "setting": "human GPR120", "result": 117.38, "unit": "%"}]}, {"molecule": "CC1(C)Cc2c(ccc(F)c2COc2c(F)cc(C3CC3C(=O)O)cc2F)O1", "note": "(stereo not drawn) [Example 99, 2-(3,5-difluoro-4-((5-fluoro-2,2-dimethyl-2,3-dihydrobenzofuran-4-yl)methoxy)phenyl)cyclopropanecarboxylic acid]", "values": [{"measurement": "% Activity (GW9508 Reference Compound)", "setting": "human GPR120", "result": 101.53, "unit": "%"}]}, {"molecule": "CC1(C)Cc2cc(Cl)cc(COc3ccc(CCC(=O)O)c(F)c3)c2O1", "note": "[Example 53, 3-(4-((5-chloro-2,2-dimethyl-2,3-dihydrobenzofuran-7-yl)methoxy)-2-fluorophenyl)-propanoic acid]", "values": [{"measurement": "% Activity (GW9508 Reference Compound)", "setting": "human GPR120", "result": 143.19, "unit": "%"}]}, {"molecule": "Cc1c(CCC(=O)O)ccc(OCc2cc(Cl)cc3c2OC(C)(C)C3)c1C", "note": "[Example 209, 3-(4-((5-chloro-2,2-dimethyl-2,3-dihydrobenzofuran-7-yl)methoxy)-2,3-dimethylphenyl)propanoic acid]", "values": [{"measurement": "% Activity (GW9508 Reference Compound)", "setting": "human GPR120", "result": 142.22, "unit": "%"}]}, {"molecule": "CN(C)Cc1cc(OCc2cc(F)cc3c2OC(C)(C)C3)ccc1CCC(=O)O", "note": "[Example 122, 3-(2-((dimethylamino)methyl)-4-((5-fluoro-2,2-dimethyl-2,3-dihydrobenzofuran-7-yl)methoxy)phenyl)propanoic acid]", "values": [{"measurement": "% Activity (GW9508 Reference Compound)", "setting": "human GPR120", "result": 3.58, "unit": "%"}]}]}
